Legend:
[1] = system: pancreatic carcinoma cells (DAN-G); assay: Apoptosis in pancreatic carcinoma cells; format: cell-based; conditions: comparable experiments
Protocol: In contrast to conventional glucocorticoids, the steroid WIL 071 can induce apoptosis also in pancreatic carcinoma cells.
The DNA fragmentation was measured by flow cytometry, see FIG. 11. The experiments were performed in triplicate. The error bars show the standard deviations of the measured values of three independent experiments.
The standard treatment for pancreatic carcinoma includes 5-fluorouracil.

[2] = system: prednisolone-resistant leukemia cells; assay: Overcoming of prednisolone resistance; format: cell-based; conditions: 72 h
Protocol: (§1) The cells were incubated in 6-well plates with 1.0·10^5 cells/mL in two milliliters of medium with the respective steroid derivative in different concentrations. The included solvent control (DMSO) served as a control, which was subtracted from all the other measured values, in order not to take into account the spontaneous apoptosis of the cells that takes place independently of the concentration of active ingredient. After 72 h, a modified cell cycle analysis was performed, in order to quantify the proportion of apoptotic cells by flow cytometry. For each concentration of the steroid, the respective mean values f standard deviations, n=3 (*: p<0.05 vs. DMSO, t test) were determined. Using the curve of the dose-effect relationship (steroid concentration−apoptosis induction) formed from these measured values, the steroid concentration at which apoptosis was triggered in 50% of the tested leukemia cells was read.
Prednisolone resistance is said to be overcome if the induction of apoptosis in prednisolone-resistant leukemia cells is as high as it is in normal leukemia cells.

Nalm-6 cells = assay: Half-maximal apoptosis induction (AC50) in Nalm-6 cells; format: cell-based; conditions: Homo sapiens; Nalm-6, 72 h, flow cytometry; read-out: Biological effect: half-maximal apoptosis induction (AC50)
Protocol: Apoptosis Induction in Nalm-6 Cells after Treatment with WIL-071 or Different Steroid Derivatives.
as §1

[3] = Distribution in serum, brain and liver after injection; format: in vivo, NOG-F (Taconic) mice
Protocol: Following the determination of the MTD, eight animals were again injected the MTD of the substances, and after 1, 2, 8 and 24 hours, 2 animals each were killed. For pharmacokinetics, the liver, brain and serum of the animals were shock-frosted in liquid nitrogen, and analyzed (see Example 15).
The samples obtained in Example 4 were examined for the contents of the substances. Since WIL-369 can be hydrolyzed to WIL-071, both WIL-369 and WIL-071 were determined in the samples. As far as these substances were detectable in the samples, this is represented in the Figures.

[4] = Tolerability (dose escalation, MTD) in an animal model; format: in vivo, NOG-F (Taconic) mice
Protocol: An incremental increase of dose of the three substances Wil-071, Wil-232 and Wil-369 was performed in 8-week-old female NOG-F (Taconic) mice. Different mice were administered one of up to seven different doses of the test substances. The start was on day 1 with the lowest dose of 10 mg/kg. […] All in all, if possible, the doses 10, 20, 40, 80, 100, 150 and 200 mg/kg are tested. Subsequently, the maximum tolerable dose (MTD) was administered to three more animals, and these were subsequently observed for one week, in order to be able to observe any developing symptoms. For this purpose, the animals were observed and weighed on a daily basis. The body weight is considered an indicator of the general condition of the animals.
(§2) For the MTD experiment, Wil-071 was dissolved in 100% DMSO, and then diluted 1:50 with a 20% (w/v) 2-hydroxypropyl-beta-cyclodextrin (HPβCD) solution. Thus, 200 μL of injection solution (per mouse) of a 40 mg/kg dose could be achieved. For 80, 100 and 150 mg/kg, the DMSO proportion was increased to up to 4% (v/v) in the final injection solution. In addition, ultrasound had to be employed, and the sample had to be heated at 60° C. for up to 45 min. 200 mg/kg was reached only as a milky suspension. […] Therefore, Wil-071 can be considered non-toxic up to 150 mg/kg. The final MTD could not be determined because of the insufficient solubility.
For 100 mg/kg of Wil-232, the end concentration of DMSO in the injection solution was 2%. In order to dissolve Wil-232, the sample also had to be treated with ultrasound, and heated at 60° C. The dose of 150 mg/kg was achieved only with 4% DMSO, and 200 mg/kg was achieved only as a suspension. […] Otherwise, there were no signs of toxicity, so that the substance can be considered tolerable up to 150 mg/kg. In this case too, a final MTD cannot be determined because of insufficient solubility.
Using a DMSO stock and 20% HPβCD solution, a maximum of only 5 mg/ml was dissolved. A further increase could not be achieved even with more DMSO or HPβCD. Thus, above the dose of 40 mg/kg, a higher injection volume was injected in order to reach the corresponding dose. […] For the tolerability under the current solubility conditions, a value of […] is to be applied. This dose was injected into the 8 animals for pharmacokinetics. In this case too, a final MTD cannot be determined because of insufficient solubility.

[5] = format: physicochemical
Protocol: All three substances are sparingly soluble in tested injection solutions, so that the maximal dose could not exceed 200 mg/kg.
as §2
For 100 mg/kg of Wil-232, the end concentration of DMSO in the injection solution was 2%. In order to dissolve Wil-232, the sample also had to be treated with ultrasound, and heated at 60° C. The dose of 150 mg/kg was achieved only with 4% DMSO, and 200 mg/kg was achieved only as a suspension. […] In this case too, a final MTD cannot be determined because of insufficient solubility.
Using a DMSO stock and 20% HPβCD solution, a maximum of only 5 mg/ml was dissolved. […] In this case too, a final MTD cannot be determined because of insufficient solubility.

Row | SMILES | EC50 [2] [µM] | AC50 (Nalm-6 cells) [µM] | also measured
1 | O=c1[nH]cc(F)c(=O)[nH]1 [5-fluorouracil] | – | – | apoptosis ([1]; at 30 μM): 24.9%; apoptosis ([1]; at 50 μM): 21.2%
2 | O=C1[O][Pt]2([NH][C@@H]3CCCC[C@H]3[NH]2)[O]C1=O [Oxaliplatin] | – | – | apoptosis ([1]; at 50 μM): 14%
3 | CC(C)CCC[C@@H](C)[C@H]1CC[C@H]2[C@@H]3[C@H]4OC[C@@]5(CC[C@H](OS(C)(=O)=O)C[C@]5(O)C4=O)[C@H]3CC[C@]12C [TAS-S389, (7β,19-epoxy-5α-hydroxy-6-on-cholestan-3β-yl) ester of methanesulfonic acid] | ~30 | ~20 | –
4 | CC(C)CCC[C@@H](C)[C@H]1CC[C@H]2[C@@H]3[C@H]4OC[C@@]5(CC=CC[C@]5(O)C4=O)[C@H]3CC[C@]12C [TAS-S392, 7β,19-epoxy-5α-hydroxy-cholest-2-en-6-one] | ~39 | ~46 | –
5 | CC(C)CCC[C@@H](C)[C@H]1CC[C@H]2[C@@H]3[C@H]4OC[C@@]5(CCCC[C@]5(O)C4=O)[C@H]3CC[C@]12C [TAS-S398, 7β,19-epoxy-5α-hydroxy-cholestan-6-one] | ~67 | ~80 | –
6 | C=C1[C@@H]2OC[C@@]3(CC[C@H](O)C[C@]13O)[C@H]1CC[C@]3(C)[C@@H]([C@H](C)CCCC(C)C)CC[C@H]3[C@H]21 [TAS-S399, 7β,19-epoxy-6-methylen-cholest-3β,5α-diol] | ~75 | 50 | –
7 | CC(C)CCC[C@@H](C)[C@H]1CC[C@H]2[C@@H]3[C@H]4OC[C@@]5(CC[C@@H](O)C[C@]5(O)C4=O)[C@H]3CC[C@]12C [TAS-S403, 3α,5α-dihydroxy-7β,19-epoxy-cholestan-6-one] | 20 | 100 | –
8 | CC(=O)O[C@@H]1CC[C@@]23CO[C@@H](C(=O)[C@@]2(O)C1)[C@H]1[C@@H]2CC[C@H]([C@H](C)CCCC(C)C)[C@@]2(C)CC[C@@H]13 [TAS-S405, 3α-acetoxy-5α-hydroxy-7β,19-epoxy-cholestan-6-one] | ~20 | 90 | –
9 | CC(C)CCC[C@@H](C)[C@H]1CC[C@H]2[C@@H]3[C@H]4OC[C@@]5(CC[C@H](O)C[C@]5(O)C4(C)O)[C@H]3CC[C@]12C (stereo partly drawn) [TAS-S406, 7β,19-epoxy-6α-methylcholestan-3β,5α,6β-triol] | ~17 | 13 | –
10 | COC(=O)O[C@H]1CC[C@@]23CO[C@@H](C(=O)[C@@]2(O)C1)[C@H]1[C@@H]2CC[C@H]([C@H](C)CCCC(C)C)[C@@]2(C)CC[C@@H]13 [WIL357, 7β,19-epoxy-5α-hydroxy-6-on-cholestan-3β-yl-methyl carbonate] | > 50 | > 50 | –
11 | CC(C)CCC[C@@H](C)[C@H]1CC[C@H]2[C@@H]3[C@H]4OC[C@@]5(CC[C@H](OC(=O)CNC(=O)OC(C)(C)C)C[C@]5(O)C4=O)[C@H]3CC[C@]12C [WIL360, N-Boc-glycin (7β,19-epoxy-5α-hydroxy-6-on-cholestan-3β-yl) ester] | 20 | > 20 | –
12 | CC(C)CCC[C@@H](C)[C@H]1CC[C@H]2[C@@H]3[C@H]4OC[C@@]5(CC[C@H](OC(=O)CO)C[C@]5(O)C4=O)[C@H]3CC[C@]12C [WIL364, (7β,19-epoxy-5α-hydroxy-6-on-cholestan-3β-yl) ester of glycolic acid] | ~17.5 | ~18 | –
13 | C=C(CC(=O)O[C@H]1CC[C@@]23CO[C@@H](C(=O)[C@@]2(O)C1)[C@H]1[C@@H]2CC[C@H]([C@H](C)CCCC(C)C)[C@@]2(C)CC[C@@H]13)C(=O)OC [WIL367, 4-(7β,19-epoxy-5α-hydroxy-6-on-cholestan-3β-yl)-1-methyl ester of itaconic acid] | ~12.5 | ~8 | –
14 | COC(=O)/C=C/C(=O)O[C@H]1CC[C@@]23CO[C@@H](C(=O)[C@@]2(O)C1)[C@H]1[C@@H]2CC[C@H]([C@H](C)CCCC(C)C)[C@@]2(C)CC[C@@H]13 [WIL369, (7β,19-epoxy-5α-hydroxy-6-on-cholestan-3β-yl)methyl ester of fumaric acid] | 5 | ~3 | distribution in the liver [3]: a quick degradation takes place in the liver; it is the only place where WIL-369 is found; mortality ([4]; 100 mg/kg dose group, one animal): found dead on day 3 after the injection; behaviour after injection ([4]; 100 mg/kg in twice as large injection volumes): the animals lay down on their side for some moments, but recovered quickly; tolerability under the current solubility conditions ([4]; mice, injection): 50 mg/kg; maximum dissolved concentration [5]: ≤ 5 mg/mL; solubility [5]: lowest solubility
15 | CC(=O)O[C@H]1CC[C@@]23CO[C@@H](C(=O)[C@@]2(O)C1)[C@H]1[C@@H]2CC[C@H]([C@H](C)CCCC(C)C)[C@@]2(C)CC[C@@H]13 [WIL-232, 3β-acetoxy-5α-hydroxy-7β,19-epoxy-cholestan-6-one] | 17.5 | 25 | outcome of injection of the 200 mg/kg suspension ([4]; 200 mg/kg as suspension, signs of pulmonary embolism in section): immediate death of the animal; dose up to which non-toxic / tolerable ([4]; injection into caudal vein, mice, final MTD not determinable because of solubility): up to 150 mg/kg
16 | CC(C)CCC[C@@H](C)[C@H]1CC[C@H]2[C@@H]3[C@H]4OC[C@@]5(CCC(=O)C[C@]5(O)C4=O)[C@H]3CC[C@]12C [WIL-241, 5α-hydroxy-7β,19-epoxy-cholestane-3,6-dione] | – | 41 | –
17 | CC(C)CCC[C@@H](C)[C@H]1CC[C@H]2[C@@H]3[C@H]4OC[C@@]5(CC[C@H](O)C[C@]5(OCc5ccccc5)C4=O)[C@H]3CC[C@]12C [WIL-242b, 5α-benzyloxy-3β-hydroxy-7β,19-epoxy-cholestan-6-one] | 40 | 37 | –
18 | CC(C)CCC[C@@H](C)[C@H]1CC[C@H]2[C@@H]3[C@H]4OC[C@@]5(CCC(=O)C=C5C4=O)[C@H]3CC[C@]12C [WIL-270, 7β,19-epoxy-cholest-4-en-3,6-dione] | 18 | 20 | –
19 | CC[C@H](CC[C@@H](C)[C@H]1CC[C@H]2[C@@H]3[C@H]4OC[C@@]5(CC[C@H](OC(C)=O)C[C@]5(O)C4=O)[C@H]3CC[C@]12C)C(C)C [WIL-DK-08, 3β-acetoxy-5α-hydroxy-7β,19-epoxy-stigmastan-6-one] | ~40 | 50 | –
20 | CC[C@H](CC[C@@H](C)[C@H]1CC[C@H]2[C@@H]3[C@H]4OC[C@@]5(CC[C@H](O)C[C@]5(O)C4=O)[C@H]3CC[C@]12C)C(C)C [WIL-DK-09, 3β,5α-dihydroxy-7β,19-epoxy-stigmastan-6-one] | ~38 | ~15 | –
